Data from patent US20070179121A1, “Method of treating pediatric patients with corticosteroids” (priority 2006, published 2007).

System: HPA-axis
Experiment: HPA-axis suppression: serum cortisol before and 30 minutes after intravenous cosyntropin stimulation, pediatric atopic dermatitis patients
Type: in vivo, human (pediatric patients)
Conditions: for Not suppressed: percent in brackets
Protocol: At the baseline visit, physical examinations were performed, including measurements of height, weight, and vital signs, and female subjects of childbearing potential underwent a urine pregnancy test (UPT). Patients with any significant disease of the hepatic, renal, endocrine, musculoskeletal, or nervous system were excluded. At Screening/Baseline, each qualified patient was assessed for a normally functioning HPA axis. Male or female patients with clinically diagnosed atopic dermatitis, involving ≧20% of the total body surface area (BSA), were randomized to receive either qd (once a day) or bid (twice a day) treatment in 4 sequential cohorts. The “rule of nines” method was used in calculating affected BSA.
Enrollment in the 4 cohorts was as follows: Cohort 1-33 patients, 12 to <18 years of age; Cohort 2-32 patients, 6 to <12 years of age; Cohort 3-30 patients, 2 to […] Cohort 4-31 infants, 3 months to <2 years of age.
Enrollment into each cohort began only after evaluation of the preceding cohort in order to minimize the risk of systemic toxicity to the study subjects. Four observations of HPA-axis suppression in a single treatment group per cohort were considered as evidence of a clinically significant risk.
Patients who met the inclusion/exclusion criteria were randomized to receive topical fluocinonide either qd or bid. Patients/guardians were instructed to apply a thin layer of the study product to all treatable areas once or twice daily for 14 days. If the areas to be treated were hairy, patients/guardians were instructed to part the hair to allow direct contact between the study product and the lesion. Patients/guardians were also instructed not to apply study product to lesions of the face, groin, perianal area, and axillae. At the end of Weeks 1, 2, and 4, patients returned to the study site in order for the investigator to perform designated evaluations, review treatment compliance and concomitant therapy, and to collect information regarding adverse events.
The potential of fluocinonide to suppress the HPA-axis was assessed by determining the rate of incidence of suppression, when suppression was defined as a serum cortisol level ≦18 μg/dL, 30 minutes after intravenous cosyntropin stimulation. For a subject to be evaluable for HPA-axis suppression, the subject must have received at least 2 full weeks of fluocinonide treatment prior to the cosyntropin challenge. Pre-and post-cosyntropin-stimulation blood samples were obtained between 7:30 and 8:30 AM to account for diurnal variation in cortisol levels, at the Baseline and Week 2 visits, as directed in the Cortrosyn® package insert. Cortrosyn® is a drug that stimulates the adrenal gland. […] The dose and administration of cosyntropin followed the labeling of the product. Specifically, the dose for subjects 3 to 17 years of age was 0.25 mg, and the dose for subjects 3 months to 2 years old was 0.125 mg. At the end of the 14-day treatment period, any subject with a post-stimulation cortisol level ≦18 μg/dL was re-tested at Week 4 and once every 4 weeks thereafter until the post-stimulation levels were within normal limits.
Mean post-stimulation cortisol levels measured at Baseline and at Week 2 were compared using a paired t test.

[1] = End of Week 2, Cohort 1 (12-<18 years), bid
[2] = End of Week 2, Cohort 1 (12-<18 years), qd
[3] = End of Week 2, Cohort 2 (6-<12 years), bid
[4] = End of Week 2, Cohort 2 (6-<12 years), qd
[5] = End of Week 2, Cohort 3 (2-<6 years), bid
[6] = End of Week 2, Cohort 3 (2-<6 years), qd
[7] = End of Week 2, Cohort 4 (3 months to <2 year), bid
[8] = End of Week 2, Cohort 4 (3 months to <2 year), qd
[9] = Screening, Cohort 1 (12-<18 years), bid
[10] = Screening, Cohort 1 (12-<18 years), qd
[11] = Screening, Cohort 2 (6-<12 years), bid
[12] = Screening, Cohort 2 (6-<12 years), qd
[13] = Screening, Cohort 3 (2-<6 years), bid
[14] = Screening, Cohort 3 (2-<6 years), qd
[15] = Screening, Cohort 4 (3 months to <2 year), bid
[16] = Screening, Cohort 4 (3 months to <2 year), qd
[17] = patient of Cohort 3 bid, Week 2 (samples suspected reversed)

For `CC(=O)OCC(=O)[C@@]12OC(C)(C)O[C@@H]1C[C@H]1[C@@H]3C[C@H](F)C4=CC(=O)C=C[C@]4(C)[C@@]3(F)[C@@H](O)C[C@@]12C` [Fluocinonide, pregna-1,4-diene-3,20-dione,21-(acetyloxy)-6,9-difluoro-11-hydroxy-16, 17-[(1-methylethylidene)bis(oxy)]-,(6α., 11β,16α)-], the “Patients who met the criterion for HPA-axis suppression” value (from here on “Patients who met the criterion”) (Cohort 1, bid, 1 of 15) was 6.7%, the “Patients who met the criterion” value (Cohort 2, bid, 2 of 16) was 12.5% and the “Patients who met the criterion” value (Cohort 3, bid, Week 2, 1 of 15, samples suspected reversed, not counted as suppression) was 6.7%. For the same compound, the “Subjects who experienced HPA-axis suppression” value (Cohort 4) was “None”, the “Cortisol increase in levels, Mean ± SD” value [1] was 8.6 ± 4.7 µg/dL and the “Cortisol increase in levels, Range” value [1] was 1.2 to 17.0 µg/dL. The “Cortisol pre-stimulation level, Mean ± SD” value [1] was 17.2 ± 8.3 µg/dL, the “Cortisol pre-stimulation level, Range” value [1] was 7.1 to 34.2 µg/dL and the Not suppressed [1] was 14 (93.3) N. For the same compound, the “Cortisol increase in levels, Mean ± SD” value [2] was 9.3 ± 5.1 µg/dL, the “Cortisol increase in levels, Range” value [2] was 3.5 to 22.2 µg/dL and the “Cortisol pre-stimulation level, Mean ± SD” value [2] was 17.6 ± 7.6 µg/dL. The “Cortisol pre-stimulation level, Range” value [2] was 1.2 to 32.9 µg/dL, the Not suppressed [2] was 15 (100) N and the “Cortisol increase in levels, Mean ± SD” value [3] was 11.5 ± 5.2 µg/dL. The “Cortisol increase in levels, Range” value [3] was -3.5 to 20.3 µg/dL, the “Cortisol pre-stimulation level, Mean ± SD” value [3] was 12.3 ± 4.9 µg/dL and the Not suppressed [3] was 14 (87.5) N. The “Cortisol increase in levels, Mean ± SD” value [4] was 11.0 ± 4.8 µg/dL, the “Cortisol increase in levels, Range” value [4] was -2.3 to 17.8 µg/dL and the “Cortisol pre-stimulation level, Mean ± SD” value [4] was 13.7 ± 5.6 µg/dL. For the same compound, the “Cortisol pre-stimulation level, Range” value [4] was 6.9 to 29.3 µg/dL, the “Cortisol post-stimulation level, Mean ± SD” value (End of Week 2, Cohort 2 (6-<12 years), qd, P = 0.015 vs screening) was 24.7 ± 3.0 µg/dL and the “Cortisol post-stimulation level, Mean ± SD” value (End of Week 2, Cohort 2 (6-<12 years), qd, P = 0.015 vs screening, listed as fluocinonide) was 24.7 µg/dL. For the same compound, the Not suppressed [4] was 15 (100) N, the “Cortisol increase in levels, Mean ± SD” value [5] was 11.0 ± 10.4 µg/dL and the “Cortisol increase in levels, Range” value [5] was -19 to 29.1 µg/dL. For the same compound, the “Cortisol pre-stimulation level, Mean ± SD” value [5] was 15.0 ± 5.9 µg/dL, the Not suppressed [5] was 15 (100) N and the “Cortisol increase in levels, Mean ± SD” value [6] was 12.7 ± 4.9 µg/dL. The “Cortisol increase in levels, Range” value [6] was 3.1 to 22.0 µg/dL, the “Cortisol pre-stimulation level, Mean ± SD” value [6] was 15.4 ± 7.0 µg/dL and the Not suppressed [6] was 15 (100) N. For the same compound, the “Cortisol increase in levels, Mean ± SD” value [7] was 16.5 ± 6.6 µg/dL, the “Cortisol increase in levels, Range” value [7] was 7.0 to 29.7 µg/dL and the “Cortisol pre-stimulation level, Mean ± SD” value [7] was 13.0 ± 4.6 µg/dL. For the same compound, the Not suppressed [7] was 15 (100) N, the “Cortisol increase in levels, Mean ± SD” value [8] was 19.9 ± 7.1 µg/dL and the “Cortisol increase in levels, Range” value [8] was 6.4 to 29.9 µg/dL. The “Cortisol pre-stimulation level, Mean ± SD” value [8] was 10.4 ± 3.2 µg/dL, the Not suppressed [8] was 15 (100) N and the “Cortisol increase in levels, Mean ± SD” value [9] was 11.1 ± 3.7 µg/dL. The “Cortisol increase in levels, Range” value [9] was 4.3 to 17.4 µg/dL, the “Cortisol post-stimulation level, Mean ± SD” value [9] was 26.8 ± 8.0 µg/dL and the “Cortisol post-stimulation level, Range” value [9] was 18.3 to 50.4 µg/dL. For the same compound, the “Cortisol pre-stimulation level, Mean ± SD” value [9] was 15.7 ± 10.3 µg/dL, the “Cortisol pre-stimulation level, Range” value [9] was 0.9 to 42.7 µg/dL and the “Cortisol increase in levels, Mean ± SD” value [10] was 9.3 ± 5.2 µg/dL. For the same compound, the “Cortisol increase in levels, Range” value [10] was -1.2 to 22.1 µg/dL, the “Cortisol post-stimulation level, Mean ± SD” value [10] was 26.4 ± 3.7 µg/dL and the “Cortisol post-stimulation level, Range” value [10] was 18.2 to 31.3 µg/dL. For the same compound, the “Cortisol pre-stimulation level, Mean ± SD” value [10] was 17.2 ± 6.6 µg/dL, the “Cortisol pre-stimulation level, Range” value [10] was 2.0 to 26.1 µg/dL and the “Cortisol increase in levels, Mean ± SD” value [11] was 12.3 ± 3.7 µg/dL. The “Cortisol increase in levels, Range” value [11] was 3.8 to 17.8 µg/dL, the “Cortisol post-stimulation level, Mean ± SD” value [11] was 24.9 ± 3.9 µg/dL and the “Cortisol post-stimulation level, Range” value [11] was 19.4 to 32.1 µg/dL. For the same compound, the “Cortisol pre-stimulation level, Mean ± SD” value [11] was 12.5 ± 4.5 µg/dL, the “Cortisol pre-stimulation level, Range” value [11] was 6.4 ± 22.2 µg/dL and the “Cortisol increase in levels, Mean ± SD” value [12] was 14.0 ± 6.1 µg/dL. For the same compound, the “Cortisol increase in levels, Range” value [12] was 3.0 to 22.6 µg/dL, the “Cortisol post-stimulation level, Mean ± SD” value [12] was 28.0 ± 4.3 µg/dL and the “Cortisol post-stimulation level, Range” value [12] was 20.9 to 36.2 µg/dL. For the same compound, the “Cortisol pre-stimulation level, Mean ± SD” value [12] was 14.0 ± 5.0 µg/dL, the “Cortisol pre-stimulation level, Range” value [12] was 6.6 to 25.1 µg/dL and the “Cortisol post-stimulation level, Mean ± SD” value (Screening, Cohort 2 (6-<12 years), qd, listed as fluocinonide) was 28.0 µg/dL. The “Cortisol increase in levels, Mean ± SD” value [13] was 15.6 ± 7.0 µg/dL, the “Cortisol increase in levels, Range” value [13] was 1.8 to 30.0 µg/dL and the “Cortisol post-stimulation level, Mean ± SD” value [13] was 29.9 ± 6.1 µg/dL. For the same compound, the “Cortisol post-stimulation level, Range” value [13] was 20.1 to 40.0 µg/dL, the “Cortisol pre-stimulation level, Mean ± SD” value [13] was 14.4 ± 5.6 µg/dL and the “Cortisol pre-stimulation level, Range” value [13] was 6.1 to 23.4 µg/dL. For the same compound, the “Cortisol increase in levels, Mean ± SD” value [14] was 17.4 ± 3.1 µg/dL, the “Cortisol increase in levels, Range” value [14] was 11.2 to 23.0 µg/dL and the “Cortisol post-stimulation level, Mean ± SD” value [14] was 29.0 ± 3.8 µg/dL. The “Cortisol post-stimulation level, Range” value [14] was 22.8 to 37.0 µg/dL, the “Cortisol pre-stimulation level, Mean ± SD” value [14] was 11.6 ± 3.6 µg/dL and the “Cortisol pre-stimulation level, Range” value [14] was 7.3 to 19.8 µg/dL. The “Cortisol increase in levels, Mean ± SD” value [15] was 17.9 ± 4.7 µg/dL, the “Cortisol increase in levels, Range” value [15] was 11.4 to 25.0 µg/dL and the “Cortisol post-stimulation level, Mean ± SD” value [15] was 29.2 ± 6.1 µg/dL. For the same compound, the “Cortisol post-stimulation level, Range” value [15] was 20.5 to 38.8 µg/dL, the “Cortisol pre-stimulation level, Mean ± SD” value [15] was 11.3 ± 4.9 µg/dL and the “Cortisol pre-stimulation level, Range” value [15] was 6.0 to 20.8 µg/dL. The “Cortisol increase in levels, Mean ± SD” value [16] was 16.5 ± 4.7 µg/dL, the “Cortisol increase in levels, Range” value [16] was 6.1 to 23.0 µg/dL and the “Cortisol post-stimulation level, Mean ± SD” value [16] was 28.3 ± 5.1 µg/dL. For the same compound, the “Cortisol post-stimulation level, Range” value [16] was 20.7 to 36.2 µg/dL, the “Cortisol pre-stimulation level, Mean ± SD” value [16] was 11.8 ± 4.3 µg/dL and the “Cortisol pre-stimulation level, Range” value [16] was 4.7 to 19.6 µg/dL. The “Suppression of the HPA-axis” value (administered once daily, patients 3 months to <18 years of age) was “does not result in suppression of the HPA-axis”, the HPA-axis suppression (administered topically once or twice daily, pediatric patients with atopic dermatitis) was “does not result in any significant level of HPA-axis suppression” and the “Suppression of the HPA-axis” value (administered twice daily) was “low incidence of suppression of the HPA-axis”. For the same compound, the “Post-stimulation serum cortisol level, single patient” value (“Post-stimulation serum cortisol level” for short) (first suppressed patient of Cohort 2 bid, Screening) was 32.1 µg/dL, the “Post-stimulation serum cortisol level” value (first suppressed patient of Cohort 2 bid, Week 2) was 17.2 µg/dL and the “Post-stimulation serum cortisol level” value (first suppressed patient of Cohort 2 bid, Week 4 (2 weeks post-treatment)) was 28.7 µg/dL. The “Post-stimulation serum cortisol level” value (patient of Cohort 3 bid, Screening) was 40.0 µg/dL, the “Post-stimulation serum cortisol level” value [17] was 9.1 µg/dL and the “Pre-stimulation serum cortisol level, single patient” value [17] was 28.0 µg/dL. The “Post-stimulation serum cortisol level” value (patient of Cohort 3 bid, Week 4) was 30.3 µg/dL, the “Post-stimulation serum cortisol level” value (second suppressed patient of Cohort 2 bid, 8 days after the end of treatment) was 22.4 µg/dL and the “Post-stimulation serum cortisol level” value (second suppressed patient of Cohort 2 bid, Screening) was 20.5 µg/dL. The “Post-stimulation serum cortisol level” value (second suppressed patient of Cohort 2 bid, Week 2) was 16.7 µg/dL, the “Post-stimulation serum cortisol level” value (suppressed patient of Cohort 1 bid, Week 2) was 17.6 µg/dL and the “Post-stimulation serum cortisol level” value (suppressed patient of Cohort 1 bid, Week 4 (2 weeks post-treatment)) was 18.9 µg/dL.
